In the supplement of paper PMC11208160:

test: recombinant UMI read abundance after kanamycin selection (control-corrected) (log10(CPM+1)); higher = more efficient recombination; extreme values may be limits of the assay; sequences stand for … in AGTGCAGAGAAAATCGGCCAGTTTTCTCTGCCTGCAGTCCGCATGCCGTGGGACCCCTTGGGTTCTAACCTGTTGCCTAGATTTATGCAGCGGACTGCCTTTCTCCCAAAGTGATAAACCGG…AGGTTGGTTTCACT; site = the 11-nt donor
Outline: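 After plating on IPTG (0.07 mM) plus kanamycin, or unselected, in two replicates, recombinant UMIs were PCR-amplified across the donor–target junction and sequenced. The cells were Escherichia coli co-electroporated with a UMI-tagged donor and donor-binding-loop pair library and a target plasmid with a fixed target and T7-inducible IS621 bridge recombinase. Values are log10(CPM+1), with CPM averaged over replicates and scaled by control-derived factors.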
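Note: IS621 bridge recombinase in Escherichia coli cells against a fixed T5 target plasmid.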

Going from “GTAGAGGCATGGACCGGTTTTCCCGGTAATCCGTATTTGTG (site GTCGAGGCTCA)” to “CTAGTATCATGGACCGGTTTTCCCGGTAATCCGTATTTGAC (site CTACTAGCTGT)”, the “recombinant UMI read abundance (log10)” value falls from 0.361 to 0.

“GGCCACCCATGGACCGGTTTTCCCGGTAATCCGTATTTGGT (site GGCCACCCTAA)” and “GGAGTCGCATGGACCGGTTTTCCCGGTAATCCGTATTTGGT (site GGAGTAGCTAC)” are within 0.2 log units of each other in “recombinant UMI read abundance (log10)” value: 0.113 for the first, 0.278 for the second.

“ATACGGCCATGGACCGGTTTTCCCGGTAATCCGTATTTGAC (site ATAAGGCCTGT)” and “TGTACACCATGGACCGGTTTTCCCGGTAATCCGTATTTGAT (site TGTACACCTGT)” are the same in “recombinant UMI read abundance (log10)” value: 0 for the first, 0 for the second.

“AGCCAAACATGGACCGGTTTTCCCGGTAATCCGTATTTGAG (site AGCCAAACTCT)” and “ATGTAGGCATGGACCGGTTTTCCCGGTAATCCGTATTTGCC (site ATGTAGGCTGA)” are within 0.2 log units of each other in “recombinant UMI read abundance (log10)” value: 1.88 for the first, 1.76 for the second.

Compared with “CACGTATCATGGACCGGTTTTCCCGGTAATCCGTATTTGAC (site CACGTATCTGT)”, “CGTGGAACATGGACCGGTTTTCCCGGTAATCCGTATTTGTT (site CGTTGAACTAA)” is lower in “recombinant UMI read abundance (log10)” value: 2.78 for the first, 0 for the second.

“AGAGGTCCATGGACCGGTTTTCCCGGTAATCCGTATTTGTG (site AGAGGTCCTCA)” and “CGTGGAACATGGACCGGTTTTCCCGGTAATCCGTATTTGTT (site CGTGTAACTAA)” are within 0.2 log units of each other in “recombinant UMI read abundance (log10)” value: 0.00302 for the first, 0 for the second.

First: TAGTCAACATGGACCGGTTTTCCCGGTAATCCGTATTTGTT (site TAGTCAACTAA)
Second: AGTTGTTCATGGACCGGTTTTCCCGGTAATCCGTATTTGGC (site AGTTGTTCTGC)
The “recombinant UMI read abundance (log10)” value of the first is lower: 0.0293 for the first, 1.34 for the second.

Going from “CTCCTCGCATGGACCGGTTTTCCCGGTAATCCGTATTTGAA (site CTCCTCGCTTT)” to “CCACTAACATGGACCGGTTTTCCCGGTAATCCGTATTTGGA (site CAACTAACTTC)”, the “recombinant UMI read abundance (log10)” value falls from 1.06 to 0.0202.

“ACACATCCATGGACCGGTTTTCCCGGTAATCCGTATTTGTC (site ACACATCCTGC)” and “CTAGTATCATGGACCGGTTTTCCCGGTAATCCGTATTTGAC (site CTAGTTTCTGG)” are within 0.2 log units of each other in “recombinant UMI read abundance (log10)” value: 0.011 for the first, 0 for the second.

Compared with “CACGTCCCATGGACCGGTTTTCCCGGTAATCCGTATTTGTT (site CACGACCCTAA)”, “TATGTGGCATGGACCGGTTTTCCCGGTAATCCGTATTTGTG (site TATGTGGCTCA)” is lower in “recombinant UMI read abundance (log10)” value: 0.22 for the first, 0.00847 for the second.

Going from “CCGGACCCATGGACCGGTTTTCCCGGTAATCCGTATTTGTT (site CCGGACCCTAA)” to “GGAAAGGCATGGACCGGTTTTCCCGGTAATCCGTATTTGCT (site GGAAAGGCTAG)”, the “recombinant UMI read abundance (log10)” value rises from 0.0191 to 2.39.

Going from “CGGTTTACATGGACCGGTTTTCCCGGTAATCCGTATTTGCT (site CGGTTTACTAG)” to “TATTTAGCATGGACCGGTTTTCCCGGTAATCCGTATTTGTG (site TATTTGGCTCA)”, the “recombinant UMI read abundance (log10)” value falls from 1.33 to 0.0112.

First: CTGCGTTCATGGACCGGTTTTCCCGGTAATCCGTATTTGAG (site CTGCGTTCTCT)
Second: GGGCCGGCATGGACCGGTTTTCCCGGTAATCCGTATTTGGC (site CGGCCGGCTGC)
The “recombinant UMI read abundance (log10)” value of the first is higher: 2.26 for the first, 0 for the second.

“CGATCGTCATGGACCGGTTTTCCCGGTAATCCGTATTTGTT (site CGATCGACTAA)” and “CTAGTATCATGGACCGGTTTTCCCGGTAATCCGTATTTGAC (site CTATGATCTGT)” are within 0.2 log units of each other in “recombinant UMI read abundance (log10)” value: 0.00634 for the first, 0 for the second.

Compared with “TCCATCGCATGGACCGGTTTTCCCGGTAATCCGTATTTGCG (site TCCAACGCTCG)”, “ATCTATACATGGACCGGTTTTCCCGGTAATCCGTATTTGAC (site ATGTATACTGT)” is higher in “recombinant UMI read abundance (log10)” value: 0 for the first, 1.03 for the second.

“CCATTCCCATGGACCGGTTTTCCCGGTAATCCGTATTTGCT (site CTATTCCCTAG)” and “TCCCCCGCATGGACCGGTTTTCCCGGTAATCCGTATTTGCG (site TCCTCCGCTCG)” are within 0.2 log units of each other in “recombinant UMI read abundance (log10)” value: 0 for the first, 0.00786 for the second.

First: GCGTTTACATGGACCGGTTTTCCCGGTAATCCGTATTTGCT (site ACGTTTACTAG)
Second: AATTCTTCATGGACCGGTTTTCCCGGTAATCCGTATTTGTA (site AATTCTTCTTA)
The “recombinant UMI read abundance (log10)” value of the first is higher: 1.3 for the first, 1.04 for the second.

“CACGGCCCATGGACCGGTTTTCCCGGTAATCCGTATTTGTT (site CGCGGCCCTAA)” and “CGATCGACATGGACCGGTTTTCCCGGTAATCCGTATTTGTC (site CGATCGACTCA)” are within 0.2 log units of each other in “recombinant UMI read abundance (log10)” value: 0.0132 for the first, 0 for the second.

“CCTAGTACATGGACCGGTTTTCCCGGTAATCCGTATTTGGC (site CCTATTACTGC)” and “CTGGAAACATGGACCGGTTTTCCCGGTAATCCGTATTTGCC (site CTGGAAACTGG)” are the same in “recombinant UMI read abundance (log10)” value: 0 for the first, 0 for the second.

Going from “ATCCAAGCATGGACCGGTTTTCCCGGTAATCCGTATTTGAG (site AGCCAAGCTCT)” to “ACATCTGCATGGACCGGTTTTCCCGGTAATCCGTATTTGTG (site ACATCTTCTCA)”, the “recombinant UMI read abundance (log10)” value rises from 0.194 to 0.5.

Compared with “ATGTAAGCATGGACCGGTTTTCCCGGTAATCCGTATTTGGC (site ATGTAAGCTGC)”, “GACCGACCATGGACCGGTTTTCCCGGTAATCCGTATTTGCG (site GACCGACCTCG)” is lower in “recombinant UMI read abundance (log10)” value: 3.24 for the first, 0.00858 for the second.

First: AGGGAAACATGGACCGGTTTTCCCGGTAATCCGTATTTGCA (site AGGGAAACTTG)
Second: ACGTGTTCATGGACCGGTTTTCCCGGTAATCCGTATTTGAC (site ACGTGTTCTGT)
The “recombinant UMI read abundance (log10)” value of the first is lower: 1.42 for the first, 2.1 for the second.

Going from “ATTGAGACATGGACCGGTTTTCCCGGTAATCCGTATTTGGT (site ATTGAAACTAC)” to “GTATTAACATGGACCGGTTTTCCCGGTAATCCGTATTTGCA (site GTATTAACTTG)”, the “recombinant UMI read abundance (log10)” value rises from 1.88 to 2.37.

“CTAGTATCATGGACCGGTTTTCCCGGTAATCCGTATTTGAC (site TTCGTATCTGT)” and “CCTCTCTCATGGACCGGTTTTCCCGGTAATCCGTATTTGTA (site CGTCTCTCTTA)” are the same in “recombinant UMI read abundance (log10)” value: 0 for the first, 0 for the second.

First: TTTGGGGCATGGACCGGTTTTCCCGGTAATCCGTATTTGCT (site TTTGGGGCTAG)
Second: AGAAAGGCATGGACCGGTTTTCCCGGTAATCCGTATTTGCC (site AGAAAGGCTCG)
The “recombinant UMI read abundance (log10)” value of the first is higher: 1.61 for the first, 0.784 for the second.

“CCTAGTACATGGACCGGTTTTCCCGGTAATCCGTATTTGGC (site CCTAATACTGC)” and “TACTTGACATGGACCGGTTTTCCCGGTAATCCGTATTTGCT (site TTCTTGACTAG)” are the same in “recombinant UMI read abundance (log10)” value: 0 for the first, 0 for the second.

Compared with “GGTTAGACATGGACCGGTTTTCCCGGTAATCCGTATTTGAG (site GGTTAGACTCT)”, “GGGCCGGCATGGACCGGTTTTCCCGGTAATCCGTATTTGGC (site AGGCCGGCTGC)” is lower in “recombinant UMI read abundance (log10)” value: 1.12 for the first, 0 for the second.

“TTGACGTCATGGACCGGTTTTCCCGGTAATCCGTATTTGTT (site TTGACGTCTAA)” and “CCTAATACATGGACCGGTTTTCCCGGTAATCCGTATTTGGC (site CATAATACTGC)” are within 0.2 log units of each other in “recombinant UMI read abundance (log10)” value: 0.101 for the first, 0 for the second.

For “CGCTCAACATGGACCGGTTTTCCCGGTAATCCGTATTTGCT (site CGCTCAACTAG)”, the “recombinant UMI read abundance (log10)” value was 0.
